Blank lines part the entries; values can stand above or below the compound they belong to.
Tests used:
Hepatocyte = settings: human, hepatocytes, 4 h, 10 µM
Description: Retention time of the compound in human hepatocytes at 10 uM after 4 hrs by HPLC-UV analysis

[1] = Drug level in human hepatocytes treated with 6-chloro-5-[4-(1-hydroxycyclobutyl)phenyl]-1H-indole-3-carboxylic acid at 10 uM after 4 hrs by HPLC-UV analysis; assay type: ADME, cell-based, Hepatocyte
[2] = Drug metabolism in human hepatocytes assessed as (2S,3S,4S,5R,6S)-6-((4,6-Difluoro-5-(4-((S)-tetrahydro-2H-pyran-2-yl)phenyl-1H-indole-3-carbonyl)oxy)-3,4,5-trihydroxytetrahydro-2H-pyran-2-carboxylic acid formation at 10 uM after 4 hrs by HPLC-UV analysis; assay type: ADME, cell-based, Hepatocyte
physchem = settings: in vivo, pH 7.4
in vitro [3] = settings: dog, MDCK
Description: Apparent passive permeability of the compound in RRCK cells by FACS analysis

[4] = Half life in human primary hepatocytes at 10 uM; assay type: ADME, cell-based, Hepatocyte
[5] = Drug level in human hepatocytes treated with 6-chloro-5-(6-(dimethylamino)-2-methoxypyridin-3-yl)-1H-indole-3-carboxylic acid at 10 uM after 4 hrs by HPLC-UV analysis; assay type: ADME, cell-based, Hepatocyte
[6] = Intrinsic clearance in human primary hepatocytes assessed per million cells; assay type: ADME, cell-based, Hepatocyte; settings: read-out: CLH
[7] = Half life of the compound in deuteriated phosphate buffer at pH 7.4 at 37 degC measured every 25 mins for 21 hrs by 1H NMR analysis; assay type: physicochemical
[8] = Drug level in human hepatocytes treated with (S)-4,6-difluoro-5-(4-(tetrahydro-2H-pyran-2-yl)phenyl)-1H-indole-3-carboxylic acid at 10 uM after 4 hrs by HPLC-UV analysis; assay type: ADME, cell-based, Hepatocyte
AMPK alpha2/beta2/gamma1 = AMPK alpha2/beta2/gamma1 (Homo sapiens, UniProt O43741+P54619+P54646); assay: biochemical
Sequence of AMPK alpha2/beta2/gamma1 (P54646 whole entry): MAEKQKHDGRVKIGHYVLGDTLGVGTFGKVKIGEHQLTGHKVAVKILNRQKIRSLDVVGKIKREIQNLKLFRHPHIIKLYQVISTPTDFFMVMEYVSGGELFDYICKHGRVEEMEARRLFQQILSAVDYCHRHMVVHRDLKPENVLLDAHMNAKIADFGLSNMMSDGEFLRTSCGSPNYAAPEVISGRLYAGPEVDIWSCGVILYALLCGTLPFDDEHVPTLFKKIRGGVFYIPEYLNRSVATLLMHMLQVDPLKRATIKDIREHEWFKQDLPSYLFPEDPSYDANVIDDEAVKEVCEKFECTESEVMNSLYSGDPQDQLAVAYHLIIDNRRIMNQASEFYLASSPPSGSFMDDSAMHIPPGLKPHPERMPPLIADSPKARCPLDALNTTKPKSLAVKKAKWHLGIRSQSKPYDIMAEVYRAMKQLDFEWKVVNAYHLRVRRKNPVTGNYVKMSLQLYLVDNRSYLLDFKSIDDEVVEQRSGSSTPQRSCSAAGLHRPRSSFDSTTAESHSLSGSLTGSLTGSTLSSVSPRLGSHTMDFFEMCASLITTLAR
Sequence of AMPK alpha2/beta2/gamma1 (O43741 whole entry): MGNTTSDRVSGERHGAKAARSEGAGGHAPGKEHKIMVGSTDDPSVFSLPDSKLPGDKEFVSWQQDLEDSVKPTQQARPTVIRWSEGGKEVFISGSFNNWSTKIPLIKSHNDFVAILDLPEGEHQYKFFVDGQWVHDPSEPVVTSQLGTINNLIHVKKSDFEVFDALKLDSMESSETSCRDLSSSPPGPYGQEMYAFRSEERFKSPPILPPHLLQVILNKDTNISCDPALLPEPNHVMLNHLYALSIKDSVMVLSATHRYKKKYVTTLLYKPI
Sequence of AMPK alpha2/beta2/gamma1 (P54619 whole entry): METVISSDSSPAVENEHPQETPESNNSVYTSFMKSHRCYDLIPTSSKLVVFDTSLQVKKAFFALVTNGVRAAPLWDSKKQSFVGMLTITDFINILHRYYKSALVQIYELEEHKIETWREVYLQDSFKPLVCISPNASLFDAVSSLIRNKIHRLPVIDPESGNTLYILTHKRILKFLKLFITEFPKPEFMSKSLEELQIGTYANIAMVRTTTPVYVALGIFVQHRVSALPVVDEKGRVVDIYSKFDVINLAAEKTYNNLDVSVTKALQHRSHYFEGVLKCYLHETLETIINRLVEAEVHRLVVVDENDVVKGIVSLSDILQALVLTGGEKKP
Description: Activation of full-length recombinant N-terminal His-tagged human AMPKalpha2beta2gamma1 expressed in Escherichia coli BL21 cells using Cy-5 SAMS peptide as substrate preincubated for 60 mins followed by substrate addition and measured after 60 mins in presence of PP2a by TR-FRET assay

[9] = target: AMP-activated protein kinase (AMPK) alpha-1/beta-1/gamma-1 (Homo sapiens) (UniProt P54619+Q9Y478+Q13131)
Sequence of AMP-activated protein kinase (AMPK) alpha-1/beta-1/gamma-1 (Homo sapiens) (P54619 whole entry): as above
Sequence of AMP-activated protein kinase (AMPK) alpha-1/beta-1/gamma-1 (Homo sapiens) (Q13131 whole entry partner): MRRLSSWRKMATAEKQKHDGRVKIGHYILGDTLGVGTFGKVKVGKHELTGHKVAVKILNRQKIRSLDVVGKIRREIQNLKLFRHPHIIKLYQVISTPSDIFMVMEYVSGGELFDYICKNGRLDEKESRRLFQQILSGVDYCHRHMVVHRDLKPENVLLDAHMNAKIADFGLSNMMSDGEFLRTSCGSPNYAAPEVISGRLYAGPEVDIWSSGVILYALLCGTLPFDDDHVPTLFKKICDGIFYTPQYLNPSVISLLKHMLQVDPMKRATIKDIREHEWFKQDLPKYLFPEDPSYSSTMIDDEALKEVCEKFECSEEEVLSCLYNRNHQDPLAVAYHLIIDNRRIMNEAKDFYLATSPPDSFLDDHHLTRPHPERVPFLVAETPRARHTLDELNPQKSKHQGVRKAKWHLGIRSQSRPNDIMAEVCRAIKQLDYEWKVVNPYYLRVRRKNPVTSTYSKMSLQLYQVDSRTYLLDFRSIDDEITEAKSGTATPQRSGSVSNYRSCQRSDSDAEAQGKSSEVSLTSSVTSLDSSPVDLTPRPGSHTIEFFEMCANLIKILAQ
Sequence of AMP-activated protein kinase (AMPK) alpha-1/beta-1/gamma-1 (Homo sapiens) (Q9Y478 2-270 partner limits assumed): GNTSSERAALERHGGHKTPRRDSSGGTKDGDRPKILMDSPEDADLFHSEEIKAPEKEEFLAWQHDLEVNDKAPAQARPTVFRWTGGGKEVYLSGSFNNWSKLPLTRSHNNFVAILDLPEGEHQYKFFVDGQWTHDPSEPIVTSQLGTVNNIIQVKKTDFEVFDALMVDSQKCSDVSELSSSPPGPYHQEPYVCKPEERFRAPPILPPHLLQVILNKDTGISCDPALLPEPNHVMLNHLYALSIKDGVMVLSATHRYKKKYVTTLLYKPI
Description: Binding affinity to Bap-tagged human AMPKalpha1beta1gamma1 expressed in Escherichia coli BL21 cells assessed as dissociation half life by SPR analysis

[10] = target: T1, AMP-activated protein kinase (AMPK) alpha-1/beta-1/gamma-1 (Homo sapiens, UniProt P54619+Q13131+Q9Y478); assay: biochemical
T1 sequence (P54619 whole entry): as the sequence (P54619 whole entry) above
T1 sequence (Q9Y478 whole entry): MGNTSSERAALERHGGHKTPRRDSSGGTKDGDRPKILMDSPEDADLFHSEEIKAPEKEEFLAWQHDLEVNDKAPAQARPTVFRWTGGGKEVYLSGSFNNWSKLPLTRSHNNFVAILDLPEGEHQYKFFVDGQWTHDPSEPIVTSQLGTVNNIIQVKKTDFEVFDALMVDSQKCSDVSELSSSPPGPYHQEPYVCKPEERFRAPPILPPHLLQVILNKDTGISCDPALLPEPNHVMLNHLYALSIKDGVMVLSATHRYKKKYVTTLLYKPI
T1 sequence (Q13131 whole entry): as the sequence (Q13131 whole entry partner) above
Description: Activation of full-length recombinant N-terminal His-tagged human AMPKalpha1beta1gamma1 expressed in Escherichia coli BL21 cells using Cy-5 SAMS peptide as substrate preincubated for 60 mins followed by substrate addition and measured after 60 mins in presence of PP2a by TR-FRET assay

AMPK alpha2/beta1/gamma1 = AMPK alpha2/beta1/gamma1 (Homo sapiens, UniProt P54619+P54646+Q9Y478); assay: biochemical
Sequence of AMPK alpha2/beta1/gamma1 (P54646 whole entry): as the sequence (P54646 whole entry) above
Sequence of AMPK alpha2/beta1/gamma1 (P54619 whole entry): as the sequence (P54619 whole entry) above
Sequence of AMPK alpha2/beta1/gamma1 (Q9Y478 whole entry): as the sequence (Q9Y478 whole entry) above
Description: Activation of full-length recombinant N-terminal His-tagged human AMPKalpha2beta1gamma1 expressed in Escherichia coli BL21 cells using Cy-5 SAMS peptide as substrate preincubated for 60 mins followed by substrate addition and measured after 60 mins in presence of PP2a by TR-FRET assay

AMPK alpha1/beta2/gamma1 = AMPK alpha1/beta2/gamma1 (Homo sapiens, UniProt O43741+P54619+Q13131); assay: biochemical
Sequence of AMPK alpha1/beta2/gamma1 (O43741 whole entry): as the sequence (O43741 whole entry) above
Sequence of AMPK alpha1/beta2/gamma1 (P54619 whole entry): as the sequence (P54619 whole entry) above
Sequence of AMPK alpha1/beta2/gamma1 (Q13131 whole entry): as the sequence (Q13131 whole entry partner) above
Description: Activation of full-length recombinant N-terminal His-tagged human AMPKalpha1beta2gamma1 expressed in Escherichia coli BL21 cells using Cy-5 SAMS peptide as substrate preincubated for 60 mins followed by substrate addition and measured after 60 mins in presence of PP2a by TR-FRET assay

[11] = target: T1, AMP-activated protein kinase (AMPK) alpha-1/beta-1/gamma-1; assay: biochemical; remark: listed apart in the source
Description: Binding affinity to Bap-tagged human AMPKalpha1beta1gamma1 expressed in Escherichia coli BL21 cells by SPR analysis

AMPK alpha2/beta2/gamma3 = AMPK alpha2/beta2/gamma3 (Homo sapiens, UniProt O43741+P54646+Q9UGI9); assay: biochemical
Sequence of AMPK alpha2/beta2/gamma3 (P54646 whole entry): as the sequence (P54646 whole entry) above
Sequence of AMPK alpha2/beta2/gamma3 (O43741 whole entry): as the sequence (O43741 whole entry) above
Sequence of AMPK alpha2/beta2/gamma3 (Q9UGI9 whole entry): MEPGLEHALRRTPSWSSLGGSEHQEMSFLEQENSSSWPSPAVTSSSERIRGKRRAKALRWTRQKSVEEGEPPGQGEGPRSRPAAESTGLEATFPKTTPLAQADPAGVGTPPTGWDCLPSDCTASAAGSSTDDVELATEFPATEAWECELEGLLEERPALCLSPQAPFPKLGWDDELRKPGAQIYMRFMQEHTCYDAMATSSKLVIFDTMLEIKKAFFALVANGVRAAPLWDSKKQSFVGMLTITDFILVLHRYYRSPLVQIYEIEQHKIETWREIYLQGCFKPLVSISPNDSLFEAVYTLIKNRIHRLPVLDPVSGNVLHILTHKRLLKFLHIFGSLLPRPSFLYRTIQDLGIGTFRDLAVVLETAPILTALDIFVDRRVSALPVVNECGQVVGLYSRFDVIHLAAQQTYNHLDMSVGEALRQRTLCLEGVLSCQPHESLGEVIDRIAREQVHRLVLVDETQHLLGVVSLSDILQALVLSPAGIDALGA
Description: Activation of full-length recombinant N-terminal His-tagged human AMPKalpha2beta2gamma3 expressed in Escherichia coli BL21 cells using Cy-5 SAMS peptide as substrate preincubated for 60 mins followed by substrate addition and measured after 60 mins in presence of PP2a by TR-FRET assay

[12] = Intrinsic clearance in human hepatocytes assessed per million cells; assay type: ADME, cell-based, Hepatocyte; settings: read-out: CLH
Cynomolgus monkey = assay: AUC (0 to 24 hrs) in cynomolgus monkey assessed as 6-chloro-5-[4-(1-hydroxycyclobutyl)phenyl]-1H-indole-3-carboxylic acid level at 0.5 mg/kg, iv by LC-MS/MS analysis; assay type: ADME, organism-based, Macaca fascicularis; design: dose 0.5 mg/kg, time < 24 hr, route intravenous; settings: in vivo
in vivo [13] = settings: cynomolgus monkey, plasma, iv, 1 mg/kg
[14] = Intrinsic clearance in monkey hepatocytes assessed per million cells; assay type: ADME, cell-based, Macaca mulatta, Hepatocyte; settings: rhesus monkey, read-out: CLH
in vitro [15] = settings: human, plasma
Description: Protein binding in human plasma assessed as unbound fraction

[16] = Half life in human hepatocytes; assay type: ADME, cell-based, Hepatocyte
[17] = Intrinsic clearance in rat hepatocytes assessed per million cells; assay type: ADME, cell-based, Hepatocyte; settings: read-out: CLH
in vivo [18] = settings: cynomolgus monkey, iv, 1 mg/kg
Description: Volume of distribution at steady state in cynomolgus monkey at 1 mg/kg, iv by LC-MS/MS analysis

[19] = Plasma clearance in Wistar Han rat at 0.5 mg/kg, iv by LC-MS/MS analysis; assay type: ADME, organism-based
in vivo [20] = settings: cynomolgus monkey, urine, iv, 1 mg/kg
Description: Drug recovery in cynomolgus monkey urine assessed as unchanged parent compound level at 1 mg/kg, iv by LC-MS/MS analysis

[21] = AUC (0 to 24 hrs) in Wistar Han rat at 0.5 mg/kg, iv by LC-MS/MS analysis; assay type: ADME, organism-based; design: time < 24 hr, dose 0.5 mg/kg, route intravenous; settings: in vivo
[22] = Half life in rat hepatocytes; assay type: ADME, cell-based, Hepatocyte
[23] = Half life in Wistar Han rat at 0.5 mg/kg, iv by LC-MS/MS analysis; assay type: ADME, organism-based; settings: in vivo
in vitro [24] = settings: rat, plasma
Description: Protein binding in rat plasma assessed as unbound fraction

[25] = Volume of distribution at steady state in Wistar Han rat at 0.5 mg/kg, iv by LC-MS/MS analysis; assay type: ADME, organism-based; settings: in vivo, read-out: Vdss
[26] = Half life in monkey hepatocytes; assay type: ADME, cell-based, Macaca mulatta, Hepatocyte; settings: rhesus monkey
in vitro [27] = settings: rhesus monkey, plasma
Description: Protein binding in monkey plasma assessed as unbound fraction

Rattus norvegicus = assay: AUC (0 to 24 hrs) in Wistar Han rat assessed as 6-chloro-5-[4-(1-hydroxycyclobutyl)phenyl]-1H-indole-3-carboxylic acid level at 0.5 mg/kg, iv by LC-MS/MS analysis; assay type: ADME, organism-based; design: time < 24 hr, dose 0.5 mg/kg, route intravenous; settings: in vivo
in vivo [28] = settings: cynomolgus monkey, iv, 1 mg/kg; remark: listed apart in the source
Description: Half life in cynomolgus monkey at 1 mg/kg, iv by LC-MS/MS analysis

in vivo [29] = settings: cynomolgus monkey, iv, 1 mg/kg; remark: listed apart in the source
[30] = Drug recovery in Wistar Han rat urine assessed as unchanged parent compound level at 0.5 mg/kg, iv by LC-MS/MS analysis; assay type: ADME, organism-based; settings: read-out: Drug recovery

SMILES: O=C(NO)c1c[nH]c2cc(Cl)c(-c3ccc(C4(O)CCC4)cc3)cc12
- Retention_time (Hepatocyte): 7.25 min
- Drug metabolism [1]: Metabolite_Detected

SMILES: COc1nc(N(C)C)ccc1-c1cc2c(C(=O)O)c[nH]c2cc1Cl
- logD at 1 h (physchem): 2.3

SMILES: COc1nc(N(C)C)ccc1-c1cc2c(C(=O)O[C@@H]3O[C@H](C(=O)O)[C@@H](O)[C@H](O)[C@H]3O)c[nH]c2cc1Cl
- Papp (in vitro [3]): 0.3 ×10⁻⁶ cm/s
- Retention_time (Hepatocyte): 7.96 min
- half-life at 10 µM [4]: > 6.67 h
- logD at 1 h (physchem): -0.05
- Drug metabolism [5]: Metabolite_Detected
- hepatocyte CLint [6]: < 3 µL/min/1e6 cells
- half-life [7]: > 21 h

SMILES: O=C(O[C@@H]1O[C@H](C(=O)O)[C@@H](O)[C@H](O)[C@H]1O)c1c[nH]c2cc(F)c(-c3ccc([C@@H]4CCCCO4)cc3)c(F)c12
- Drug metabolism [8]: Metabolite_Detected
- EC50 (AMPK alpha2/beta2/gamma1): > 40000 nM
- T1/2 [9]: 15.3 s
- Papp (in vitro [3]): 0.3 ×10⁻⁶ cm/s
- EC50 [10]: 59 nM
- EC50 (AMPK alpha2/beta1/gamma1): 332 nM
- Retention_time (Hepatocyte): 8.37 min
- EC50 (AMPK alpha1/beta2/gamma1): > 40000 nM
- Kd [11]: 198 nM
- logD at 1 h (physchem): 0.08
- EC50 (AMPK alpha2/beta2/gamma3): > 40000 nM
- half-life [7]: > 21 h

Results, then the compound that gave them:

- Retention_time (Hepatocyte): 9.72 min
- Drug metabolism [2]: Metabolite_Detected
- logD at 1 h (physchem): 1.8
SMILES: O=C(O)c1c[nH]c2cc(F)c(-c3ccc([C@@H]4CCCCO4)cc3)c(F)c12

- hepatocyte CLint [12]: < 6 µL/min/1e6 cells
- AUC (Cynomolgus monkey): 303 ng·h/mL
- clearance (in vivo [13]): 9.85 mL/min/kg
- hepatocyte CLint [14]: < 6 µL/min/1e6 cells
- Papp (in vitro [3]): 0.6 ×10⁻⁶ cm/s
- fraction unbound (in vitro [15]): 0.019
- Retention_time (Hepatocyte): 7.09 min
- half-life [16]: > 4 h
- hepatocyte CLint [17]: < 6 µL/min/1e6 cells
- Vd (in vivo [18]): 4.52 L/kg
- half-life at 10 µM [4]: > 6.67 h
- clearance [19]: 0.99 mL/min/kg
- dose excreted (in vivo [20]): 9.8%
- AUC(0-t) at 24 h [21]: 8850 ng·h/mL
- half-life [22]: > 4 h
- half-life [23]: 6.96 h
- logD at 1 h (physchem): -0.14
- fraction unbound (in vitro [24]): 0.0018
- Vd [25]: 0.4 L/kg
- half-life [26]: > 4 h
- fraction unbound (in vitro [27]): 0.028
- AUC (Rattus norvegicus): 101 ng·h/mL
- half-life (in vivo [28]): 18 h
- hepatocyte CLint [6]: < 3 µL/min/1e6 cells
- half-life [7]: > 21 h
- AUC(0-t) at 24 h (in vivo [29]): 1750 ng·h/mL
- dose excreted [30]: 1%
- Drug metabolism [1]: Metabolite_Detected
SMILES: O=C(O[C@@H]1O[C@H](C(=O)O)[C@@H](O)[C@H](O)[C@H]1O)c1c[nH]c2cc(Cl)c(-c3ccc(C4(O)CCC4)cc3)cc12

— ChEMBL document CHEMBL4229467, “Acyl Glucuronide Metabolites of 6-Chloro-5-[4-(1-hydroxycyclobutyl)phenyl]-1 H-indole-3-carboxylic Acid (PF-06409577) and Related Indole-3-carboxylic Acid Derivatives are Direct Activators of Adenosine Monophosphate-Activated Protein Kinase (AMPK)” (J Med Chem, 2018)
